These results are taken from paper PMC4603303, “Activity of Novel Synthetic Peptides against Candida albicans” (Scientific Reports, 2015).

A word on the IC50: it is the concentration that inhibits the measured activity by half.

The test system of series [1] is Candida albicans ATCC 90028. The series can be described thus: MIC, broth microdilution (CLSI M27-A2). The note with it: for Minimum Inhibitory Concentration (MIC): ATCC 90028, 48 h; for MIC: Candida albicans, ATCC90028, C. albicans ATCC 90028, RPMI 1640-MOPS, 48 h, 37°C, lowest concentration inhibiting 90% growth, three times in duplicate, read-out: Minimum Inhibitory Concentration (MIC). The class given is cell-based. Here is the method: (§1) C. albicans strains SC5314 and ATCC 90028, C. krusei ATCC 6258 and C. parapsilosis ATCC 22019 were used in the study. The strains were stored at −80°C in nutrient broth supplemented with 2.0% glycerol stock. Prior to experimentation, each strain was streaked for single colonies on Sabouraud Dextrose (SDA) agar plates and incubated overnight at 37°C.
(§2) Antifungal activity of the designed peptides was determined according to a standardized broth microdilution method (Clinical and Laboratory Standards Institute (CLSI) document M27-A2). Briefly, the yeast colonies from 24- hour-old cultures of Candida species were picked and resuspended in 5 mL of sterile 0.145 mol/L saline and adjusted to cell density of 1 × 10^6 to 5 × 10^6 cells/ml. The yeast stock suspension was then diluted to obtain a starting inoculum of 5.0 × 10^2 to 2.5 × 10^3 cells/ml. […] The drugs were dissolved in DMSO and prepared to a stock concentration of 25 mg/L and 50 mg/L, respectively. […] 100 μL of standardized yeast suspension was then added to each well. Plates were incubated for 48 hours at 37°C. The minimum inhibitory concentration (MIC) was defined as the lowest concentration that inhibited 90% growth of Candida species. The MICs were determined three times and each time in duplicate.
For orientation: Dilution methods test growth across graded concentrations, often in twofold steps.

A further series concerns Candida albicans SC 5314. The experiment in a line: MIC, broth microdilution (CLSI M27-A2). The settings on record: for Minimum Inhibitory Concentration (MIC): SC 5314, 48 h; for MIC: Candida albicans, SC5314, C. albicans SC 5314, RPMI 1640-MOPS, 48 h, 37°C, lowest concentration inhibiting 90% growth, three times in duplicate, read-out: Minimum Inhibitory Concentration (MIC). The series is classed as cell-based. Here is the method: as §1, §2

For the next series, the system named is Candida krusei ATCC 6258. The series can be described thus: MIC, broth microdilution (CLSI M27-A2). The class given is cell-based. The note with it: for Minimum Inhibitory Concentration (MIC): ATCC 6258, 48 h; for MIC: Pichia kudriavzevii, ATCC6258, C. krusei ATCC 6258, RPMI 1640-MOPS, 48 h, 37°C, lowest concentration inhibiting 90% growth, three times in duplicate, read-out: Minimum Inhibitory Concentration (MIC). As for the experimental part:
as §1, §2

Series [2] concerns Candida parapsilosis ATCC 22019. The series can be described thus: MIC, broth microdilution (CLSI M27-A2). The class given is cell-based. The note with it: for Minimum Inhibitory Concentration (MIC): ATCC 22019, 48 h; for MIC: Lodderomyces parapsilosis, ATCC22019, C. parapsilosis ATCC 22019, RPMI 1640-MOPS, 48 h, 37°C, lowest concentration inhibiting 90% growth, three times in duplicate, read-out: Minimum Inhibitory Concentration (MIC). Here is the method: as §1, §2

In another series the test system is Candida strains. The experiment in a line: MIC, broth microdilution, range stated over several Candida strains. The class given is cell-based, Candida spp. As for the experimental part: as §1, §2
In another series the test system is C. albicans SC5314. The experiment in a line: Time killing assay. The series is classed as cell-based, Candida albicans. Here is the method:
A fungal suspension was adjusted to a 0.5 McFarland turbidity standard with cell density of 1 × 10^6 to 5 × 10^6 cells/ml. 100 μL of adjusted yeast suspension was exposed to 900 μL of RPMI medium containing peptide, yielding a starting inoculum of approximately 10^5 cells/ml. The solutions were incubated at 37°C with agitation. At the predetermined time interval of 0, 1, 2, 4 and 6 hours, 10 μL or 30 μL of the samples were removed, serially diluted with phosphate-buffered saline (PBS) and plated on SDA plates to allow colony counts after 24 hours of incubation. Controls for yeast growth and antifungal agents were also performed. The lower limit of accurate and reproducible quantitation was 100 CFU/ml. Results were obtained from three independent experiments.

The subject of the next series is human erythrocytes. The series can be described thus: Haemolytic assay. The series is classed as cell-based. The settings on record: red cells of human, 1 h. Here is the method: Freshly collected human blood with heparin was centrifuged to remove the buffy coat. The erythrocytes were washed three times with PBS, centrifuged for 10 min at 2000 rpm at 10°C, and resuspended in PBS to 4% (vol/vol). […] PBS and 0.1% Triton X-100 were used as agents to induce 0 and 100% haemolysis, respectively. Plates were incubated for 1 hour at 37°C and centrifuged at 2000 rpm for 10 min. The supernatant (100 μL) was transferred to a 96-well flat-bottomed polystyrene plate, and the release of haemoglobin was monitored by measuring the absorbance at 560 nm using a microplate reader. Results were repeated three times and each time in duplicate. The percentage of haemolysis was calculated using the following formula: [drawing 2] where Ap and A100 represent the absorbance of erythrocytes treated with peptide and 0.1% Triton X-100. A0 is the absorbance of erythrocytes without treatment.

The test system of another series is Het-1A cell line. The experiment in a line: cells. As for the experimental part:
(§3) The human normal vaginal epithelial cell line VK2/E6E7 (ATCC® CRL-2616™) and human normal esophagus epithelial cell line Het-1A (ATCC® CRL-2692™) were used for cytotoxicity testing. VK2/E6E7 cell line was grown in Keratinocyte-Serum Free medium (GIBCO-BRL 17005-042) supplemented with 0.1 ng/ml human recombinant EGF, 0.05 mg/ml bovine pituitary extract, and 44.1 mg/L calcium chloride. […] Cell viability was measured by using CellTiter 96® Aqueous Non-Radioactive Cell Proliferation Assay (Promega, USA) and the colourimetric changes were determined at 490 nm using a microplate reader. […] Results were recorded by averaging three repeated experiments and each experiment was performed in duplicate.

Another series deals with VK2/E6E7 cell line. The series can be described thus: cells. As for the experimental part: as §3
Series [3] deals with C. albicans SC5314 biofilms. The series can be described thus: Biofilm reduction assay (XTT). The settings on record: minimum concentration giving 50% reduction of viability of 24 h-old biofilm, 24 h treatment, 1-4× MIC tested. The series is classed as cell-based, Candida albicans. As for the experimental part: Biofilms of C. albicans were formed on commercially available pre-sterilized, polystyrene, flat bottomed 96 well microtitre plates as described by Jin et al with modification. Firstly, a standardized yeast suspension (10^7 cells/ml) of C. albicans SC5314 was prepared by suspending colonies from 24-hours old culture in RPMI 1640 medium and adjusted to an optical density of 0.38–0.39 at 520 nm. 100 μL of yeast suspension was dispensed into each well of a microtitre plate using a multichannel pipette and the plates were incubated in a shaking incubator at 37°C with 75 rpm for 90 minutes to allow adherence of yeast on the surface of each well. After the adhesion phase, the non-adherent cells were removed and each well was washed twice with 150 μL PBS. 100 μL of RPMI 1640 medium was transferred to each washed well and the plates were incubated at 37°C in a shaking incubator at 75 rpm for 24 hours to allow biofilm formation. Following biofilm phase, the medium was aspirated and each well was washed twice gently with 200 μL PBS to remove non-adherent cells. Residual PBS was removed by inverting the plates over an absorbent paper before addition of peptides. […] Antifungal agent-free wells and biofilm-free wells were included as positive and negative controls. After treatment with peptides, the medium was removed and each well was washed twice with 200 μL PBS. The biofilm formation was quantified by using XTT reduction assay as described below. Each experiment was repeated three times in duplicate.
XTT reduction assay was performed according to the method adapted from Jin et al.[44] Briefly, XTT (Sigma) was dissolved to a concentration of 1 mg/ml using sterile PBS. XTT solution was then filter-sterilized using a 0.22 μm-pore-size filter and kept at −70°C prior to use. 0.4 mM menadione solution was prepared by dissolving menadione (Sigma) with acetone. The menadione solution was filter-sterilized and kept at −70°C before use. Prior to each assay, XTT solution was thawed and mixed with menadione solution at a volume ratio of 20:1. After washing, a total volume of 200 μL of XTT-menadione mixture (158 μL of PBS, 40 μL of XTT and 2 μL of menadione) was added to each prewashed biofilm and control wells. The plates were incubated in the dark for 2 hours at 37°C. 100 μL of the solution was transferred to new wells and the colorimetric change in the solution was measured using a microtiter plate reader at 490 nm. Antibiofilm activity of the peptides and conventional antifungals was expressed as the biofilm-eradicating concentration 2 (BEC-2), which is defined as the minimum concentration of the peptides resulting in 50% reduction of the biofilm viability compared to the growth control.
(Tetrazolium dyes change colour on reduction, which living cells bring about.)

Values after ≈ are worked out from the molar mass of the structure shown. Ends that are not written are not given here.

As for GVIKAAKKVVKVLKNLF-NH2 [Upn-lys5], the “Minimum Inhibitory Concentration (MIC)” value in series [1] was determined as 64 µg/mL; with Candida albicans SC 5314 it was 32 µg/mL; with Candida krusei ATCC 6258, 32 µg/mL; in series [2], 32 µg/mL. Also, the “MIC values, range” value against Candida strains (range against C. albicans and C. krusei) is 32 to 64 µg/mL. Also, in the series on C. albicans SC5314 (SC5314, 6 h, 2), the “% killing” value is 99.99%. Besides, the “mean log decrease in viable cells” value with C. albicans SC5314 (SC5314, 6 h, 2) came out at 4.95 ± 1.24 log CFU/mL. Also, in the series with human erythrocytes, the “Haemolytic activity HC10” value is greater than 256 mg/L. For the same compound, the “Haemolytic activity HC50” value with human erythrocytes was greater than 256 mg/L. Also, the IC50 amounted to 9.73 ± 1.19 µg/mL in the series on Het-1A cell line (24 h); 9.83 ± 1.40 µg/mL with Het-1A cell line (48 h); 15.73 ± 0.39 µg/mL in the series with Het-1A cell line (72 h); 8.67 ± 2.21 µg/mL in the series on VK2/E6E7 cell line (24 h); 10.28 ± 4.53 µg/mL in the series on VK2/E6E7 cell line (48 h); 9.12 ± 1.20 µg/mL in the series on VK2/E6E7 cell line (72 h).

On to GIWKKWIKKVVNVLKNLF-NH2 [KU1], for which the “Minimum Inhibitory Concentration (MIC)” value in series [1] turned out to be 32 µg/mL; with Candida albicans SC 5314 it was 16 µg/mL; in the series with Candida krusei ATCC 6258 it was 32 µg/mL; in series [2], 16 µg/mL. The “MIC values, range” value with Candida strains (48 h) lay in the range of 16 to 32 µg/mL. Moreover, in the series on C. albicans SC5314 (SC5314, 6 h, 2), the “% killing” value came out at 99.82%. Also, in the series with C. albicans SC5314 (SC5314, 6 h, 2), the “mean log decrease in viable cells” value was determined as 2.95 ± 0.59 log CFU/mL. In the series with human erythrocytes, the “Haemolytic activity HC10” value turned out to be 8.07 ± 1.60 mg/L. Further, the “Haemolytic activity HC50” value in the series with human erythrocytes is reported as 58.19 ± 2.04 mg/L. In addition, the concentration for half-maximal inhibition (IC50) in the series on Het-1A cell line (24 h) turned out to be 3.61 ± 0.19 µg/mL; in the series with Het-1A cell line (48 h) it was 4.59 ± 0.26 µg/mL; in the series on Het-1A cell line (72 h), 7.27 ± 1.17 µg/mL; with VK2/E6E7 cell line (24 h) it was 4.28 ± 0.60 µg/mL; in the series on VK2/E6E7 cell line (48 h) it was 4.71 ± 0.22 µg/mL; in the series on VK2/E6E7 cell line (72 h), 7.84 ± 1.99 µg/mL.

Regarding `OC(Cn1cncn1)(Cn1cncn1)c1ccc(F)cc1F` [Fluconazole, reference compound], the MIC stood at 2 µg/mL (≈ 6.53 µM) in [1], 1 µg/mL (≈ 3.27 µM) with Candida albicans SC 5314, 64 µg/mL (≈ 209 µM) in the series with Candida krusei ATCC 6258 and 1 µg/mL (≈ 3.27 µM) in series [2]. Also, the “MIC values, range” value against Candida strains (range for two C. albicans strains and C. parapsilosis) was in the range of 1 to 2 µg/mL. In addition, the “reduction in yeast growth” value in the series on C. albicans SC5314 (2× MIC) was greater than 99.9%. Besides, the BEC-2 values in series [3] and in series [3] (listed as fluconazole) was greater than 4 mg/L throughout.

With `C[C@@H]1[C@H](O)[C@@H](C)/C=C/C=C/C=C/C=C/C=C/C=C/C=C/[C@H](O[C@@H]2O[C@H](C)[C@@H](O)[C@H](N)[C@@H]2O)C[C@@H]2O[C@](O)(C[C@@H](O)C[C@@H](O)[C@H](O)CC[C@@H](O)C[C@@H](O)CC(=O)O[C@H]1C)C[C@H](O)[C@H]2C(=O)O` [Amphotericin B, reference compound], the MIC stood at 0.5 µg/mL (≈ 0.541 µM) in series [1], 1 µg/mL (≈ 1.08 µM) with Candida albicans SC 5314, 1 µg/mL (≈ 1.08 µM) with Candida krusei ATCC 6258 and 1 µg/mL (≈ 1.08 µM) in [2]. Moreover, in the series with Candida strains (range against four Candida strains (C. albicans and non-albicans species)), the “MIC values, range” value was in the range of 0.5 to 1 µg/mL. Further, the “% killing” value in the series with C. albicans SC5314 (2× MIC, within 2 hours) is given as greater than 99.99%. The “mean log reduction in viable cells” value with C. albicans SC5314 (2× MIC, within 2 hours, RPMI, 37°C, mean ± SD of three experiments) came out at 5.44 ± 0.07 log CFU/mL. The BEC-2 values in series [3] is less than 1 mg/L; in series [3] (listed as amphotericin B) it was greater than 1 mg/L. Besides, the IC50 in the series with Het-1A cell line (Homo sapiens, HET-1A, 24 h) is 9.91 ± 3.35 µg/mL (≈ 10.7 µM); in the series with Het-1A cell line (Homo sapiens, HET-1A, 48 h), 7.78 ± 1.7 µg/mL (≈ 8.42 µM); in the series with Het-1A cell line (Homo sapiens, HET-1A, 72 h), 9.1 ± 0.98 µg/mL (≈ 9.85 µM); with VK2/E6E7 cell line (Homo sapiens, 24 h) it was 8.13 ± 4.54 µg/mL (≈ 8.8 µM); in the series on VK2/E6E7 cell line (Homo sapiens, 48 h) it was 7.64 ± 2.95 µg/mL (≈ 8.27 µM); with VK2/E6E7 cell line (Homo sapiens, 72 h), 15.3 ± 3.72 µg/mL (≈ 16.6 µM).
